Values quoted from earlier work in patent publication US5843942A, “Aromatic amino ethers as pain relieving agents” (Zeneca Limited, priority 1994, dated 1998).

CC(=O)NNC(=O)N1Cc2ccccc2Oc2ccc(Cl)cc21 [SC-19220]
block of the effect of PGE2 (guinea pig ileum): blocks the effect of PGE2 | block of the effect of PGE2 (cat trachea): not on other tissues such as the cat trachea | block of the effect of PGE2 (dog fundus): blocks the effect of PGE2
